Measured values reported in patent US11198713B2, “Agents modulating beta-catenin functions and methods thereof” (FOG PHARMACEUTICALS, INC., priority 2017, dated 2021).

biological target: T1, full-length beta-catenin (Axin site) (Homo sapiens, UniProt P35222); assay: Competition fluorescence polarization assay (Axin site probe); type: binding; details: competition fluorescence polarization, Table 2; read-out: in vitro FP EC50
T1 construct: 15 nM full-length beta-catenin, 20 nM FITC labeled peptide in buffer
T1 sequence (P35222 1-781): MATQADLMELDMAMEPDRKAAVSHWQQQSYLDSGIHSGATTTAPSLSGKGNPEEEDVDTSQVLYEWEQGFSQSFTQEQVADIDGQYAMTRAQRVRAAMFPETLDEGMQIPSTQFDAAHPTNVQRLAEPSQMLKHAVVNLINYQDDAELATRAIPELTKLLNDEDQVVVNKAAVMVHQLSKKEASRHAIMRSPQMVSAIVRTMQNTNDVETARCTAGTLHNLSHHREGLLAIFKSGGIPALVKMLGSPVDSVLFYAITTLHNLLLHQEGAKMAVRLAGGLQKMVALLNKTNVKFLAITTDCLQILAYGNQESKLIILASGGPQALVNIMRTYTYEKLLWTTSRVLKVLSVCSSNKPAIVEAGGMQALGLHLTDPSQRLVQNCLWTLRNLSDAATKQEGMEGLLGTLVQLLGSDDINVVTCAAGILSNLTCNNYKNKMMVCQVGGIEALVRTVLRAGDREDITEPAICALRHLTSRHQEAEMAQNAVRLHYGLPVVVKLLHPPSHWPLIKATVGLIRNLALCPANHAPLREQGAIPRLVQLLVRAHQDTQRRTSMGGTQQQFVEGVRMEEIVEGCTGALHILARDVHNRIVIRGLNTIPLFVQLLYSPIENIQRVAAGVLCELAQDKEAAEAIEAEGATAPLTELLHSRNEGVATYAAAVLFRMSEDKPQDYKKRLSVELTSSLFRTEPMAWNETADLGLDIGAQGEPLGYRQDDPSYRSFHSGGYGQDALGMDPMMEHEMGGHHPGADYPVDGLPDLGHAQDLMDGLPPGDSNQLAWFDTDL
Procedure: FIG. 1. […] Peptide solutions were prepared in buffer (50 mM Tris pH 8.0, 250 mM NaCl, 2% glycerol, 0.5 mM EDTA, 0.02% w/v sodium azide) using a 3-fold serial dilution from 5 μM. Probe solution (15 nM full-length 13-Catenin, 20 nM FITC labeled peptide (FITC-PEG1-PQ-S5-ILD-S5-HVRRVWR (SEQ ID NO: 1) (hydrocarbon staple formed by two S5 via olefin metathesis)) in buffer) was prepared and incubated for 5 minutes, then 40 μL per well plated in a black polystyrene 384-well plate (Corning). Equal volume of the titrated peptide was added to the plate and incubated protected from light for 15 minutes prior to read. Reads were performed on a Spectramax M5 (Molecular Devices) in duplicate.
FIG. 7. […] BCL9 Competition FP assay: Peptide solutions were prepared in buffer (50 mM Tris pH 8.0, 250 mM NaCl, 2% glycerol, 0.5 mM EDTA, 0.02% w/v sodium azide) using a 3-fold serial dilution from 10 μM. Probe solution (250 nM full-length beta-catenin, 20 nM 5FAM labeled peptide in buffer) was prepared and 40 μL per well plated in a black polystyrene 384-well plate (Corning). Equal volume of the titrated peptide was added to the plate and incubated protected from light for 15 minutes prior to read. Reads were performed on a Spectramax M5 (Molecular Devices) in duplicate. Probe: Ac-[…]nLeu-Leu-2NapA-bala-bala-Lys5FAM-NH2 (SEQ ID NO: 2) (from Biochemistry, 2009, 48 (40), pp 9534-9541). Axin Competition FP assay: Peptide solutions were prepared in buffer (50 mM Tris pH 8.0, 250 mM NaCl, 2% glycerol, 0.5 mM EDTA, 0.02% w/v sodium azide) using a 3-fold serial dilution from 5 μM. Probe solution (15 nM full-length beta-catenin, 20 nM FITC labeled peptide in buffer) was prepared and incubated for 5 minutes, then 40 μL per well plated in a black polystyrene 384-well plate (Corning). Equal volume of the titrated peptide was added to the plate and incubated protected from light for 15 minutes prior to read. Reads were performed on a Spectramax M5 (Molecular Devices) in duplicate. Probe: FITC-StAx-33 from Grossmann et al. PNAS 109 17942-17947.

For `CC[C@H](C)[C@@H]1NC(=O)[C@](C)(NC(=O)[C@H](C)NC(=O)[C@@H]2CCCN2C(C)=O)CCCC=CCCCCCC[C@@](C)(C(=O)N[C@@H](CCCNC(=N)N)C(=O)N[C@H](C(=O)N[C@@H](Cc2c[nH]c3ccccc23)C(N)=O)C(C)C)NC(=O)[C@H](C(C)C)NC(=O)[C@H](Cc2c[nH]cn2)NC(=O)[C@H](C)NC(=O)[C@H](CC(=O)O)NC(=O)[C@H](CC(C)C)NC1=O` (single isomer, unassigned) [FP0212s Isomer 2, Ac-P-A-R5-I-L-D-A-H-V-S8-R-V-W-NH2], which EC50 is on record?
The EC50 was 100 to 500 nM.

How did the EC50 turn out when `CC[C@H](C)[C@@H]1NC(=O)[C@H](Cc2c[nH]cn2)NC(=O)[C@H](C)NC(=O)[C@H](CC(=O)O)NC(=O)[C@H](CC(C)C)NC(=O)[C@H]([C@@H](C)CC)NC(=O)[C@](C)(NC(=O)[C@H](C)NC(C)=O)CCCCCCC=CCOC(=O)N2CC[C@@](C(=O)N[C@@H](CCCNC(=N)N)C(=O)N[C@H](C(=O)N[C@@H](Cc3c[nH]c4ccccc34)C(N)=O)C(C)C)(C2)NC1=O` (single isomer, unassigned) [FP0217c Isomer 1, Ac-AR8ILDAHIMBRVW (SEQ ID NO: 280)] was run?
Its EC50 is 500 to 5000 nM.

For `CC[C@H](C)[C@@H]1NC(=O)[C@H](Cc2c[nH]cn2)NC(=O)[C@H](C)NC(=O)[C@H](CC(=O)O)NC(=O)[C@H](CC(C)C)NC(=O)[C@H]([C@@H](C)CC)NC(=O)[C@](C)(NC(=O)[C@H](C)NC(C)=O)CCCCCCC=CCCC[C@@](C)(C(=O)N[C@@H](CCCNC(=N)N)C(=O)N[C@H](C(=O)N[C@@H](Cc2c[nH]c3ccccc23)C(N)=O)C(C)C)NC1=O` (single isomer, unassigned) [FP0217s Isomer 1, Ac-A-R8-I-L-D-A-H-I-S5-R-V-W-NH2], which EC50 is on record?
Its EC50 is under 100 nM.

For `CC[C@H](C)[C@@H]1NC(=O)[C@H](Cc2c[nH]cn2)NC(=O)[C@H](C)NC(=O)[C@H](CC(=O)O)NC(=O)[C@H](CC(C)C)NC(=O)[C@H]([C@@H](C)CC)NC(=O)[C@](C)(NC(=O)[C@H](C)NC(C)=O)CCCCCCC=CCCC[C@@](C)(C(=O)N[C@@H](CCCNC(=N)N)C(=O)N[C@H](C(=O)N[C@@H](Cc2c[nH]c3ccccc23)C(N)=O)C(C)C)NC1=O` (single isomer, unassigned) [FP0217s Isomer 2, Ac-A-R8-I-L-D-A-H-I-S5-R-V-W-NH2], which EC50 is on record?
Its EC50 is under 100 nM.

For `CC[C@H](C)[C@@H]1NC(=O)[C@H](Cc2c[nH]cn2)NC(=O)[C@H](C)NC(=O)[C@H](CC(=O)O)NC(=O)[C@H](CC(C)C)NC(=O)[C@H]([C@@H](C)CC)NC(=O)[C@](C)(NC(=O)[C@H](C)NC(C)=O)CN(C)C(=O)OCC=CCCCCCC[C@@](C)(C(=O)N[C@@H](CCCNC(=N)N)C(=O)N[C@H](C(=O)N[C@@H](Cc2c[nH]c3ccccc23)C(N)=O)C(C)C)NC1=O` (single isomer, unassigned) [FP0335c Isomer 1, Ac-A-ME-I-L-D-A-H-I-S8-R-V-W-NH2], which EC50 is on record?
Its EC50 is 100 to 500 nM.

How did the EC50 turn out when `CC[C@H](C)[C@@H]1NC(=O)[C@H](Cc2c[nH]cn2)NC(=O)[C@H](C)NC(=O)[C@H](CC(=O)O)NC(=O)[C@H](CC(C)C)NC(=O)[C@H]([C@@H](C)CC)NC(=O)[C@](C)(NC(=O)[C@H](C)NC(C)=O)CN(C)C(=O)OCC=CCCCCCC[C@@](C)(C(=O)N[C@@H](CCCNC(=N)N)C(=O)N[C@H](C(=O)N[C@@H](Cc2c[nH]c3ccccc23)C(N)=O)C(C)C)NC1=O` (single isomer, unassigned) [FP0335c Isomer 2, Ac-A-ME-I-L-D-A-H-I-S8-R-V-W-NH2] was run?
Its EC50 is under 100 nM.

With `CC[C@H](C)[C@@H]1NC(=O)[C@H](Cc2c[nH]cn2)NC(=O)[C@H](C)NC(=O)[C@H](CC(=O)O)NC(=O)[C@H](CC(C)C)NC(=O)[C@H]([C@@H](C)CC)NC(=O)[C@](C)(NC(=O)[C@H](C)NC(C)=O)CCCCCCC=CCOC(=O)N2CC[C@@](C(=O)N[C@@H](Cc3cccc4ccccc34)C(=O)N[C@H](C(=O)N[C@@H](Cc3c[nH]c4ccccc34)C(N)=O)C(C)C)(C2)NC1=O` (single isomer, unassigned) [FP0365c Isomer 1, Ac-A-R8-I-L-D-A-H-I-MB-1NapA-V-W-NH2] as the compound, how does the EC50 read?
The EC50 was 500 to 5000 nM.

For `CC[C@H](C)[C@@H]1NC(=O)[C@H](Cc2c[nH]cn2)NC(=O)[C@H](C)NC(=O)[C@H](CC(=O)O)NC(=O)[C@H](CC(C)C)NC(=O)[C@H]([C@@H](C)CC)NC(=O)[C@](C)(NC(=O)[C@H](C)NC(C)=O)CCCCCCC=CCOC(=O)N2CC[C@@](C(=O)N[C@@H](Cc3cccc4ccccc34)C(=O)N[C@H](C(=O)N[C@@H](Cc3c[nH]c4ccccc34)C(N)=O)C(C)C)(C2)NC1=O` (single isomer, unassigned) [FP0365c Isomer 2, Ac-A-R8-I-L-D-A-H-I-MB-1NapA-V-W-NH2], which EC50 is on record?
The EC50 was 500 to 5000 nM.

With `CC[C@H](C)[C@@H]1NC(=O)[C@H](Cc2c[nH]cn2)NC(=O)[C@H](C)NC(=O)[C@H](CC(=O)O)NC(=O)[C@H](CC(C)C)NC(=O)[C@H]([C@@H](C)CC)NC(=O)[C@](C)(NC(=O)[C@H](C)NC(C)=O)CCCCCCC=CCOC(=O)N2CC[C@@](C(=O)N[C@@H](Cc3cccc4ccccc34)C(=O)N[C@H](C(=O)N[C@@H](Cc3c[nH]c4ccccc34)C(N)=O)C(C)C)(C2)NC1=O` (single isomer, unassigned) [FP0365c, Ac-A-R8-I-L-D-A-H-I-MB-1NapA-V-W-NH2] as the compound, how does the EC50 read?
Its EC50 is 100 to 500 nM.

`CC[C@H](C)[C@@H]1NC(=O)[C@H](Cc2c[nH]cn2)NC(=O)[C@H](C)NC(=O)[C@H](CC(=O)O)NC(=O)[C@H](CC(C)C)NC(=O)[C@H]([C@@H](C)CC)NC(=O)[C@](C)(NC(=O)[C@H](C)NC(C)=O)CCCCC=CCOC(=O)N(C)CC[C@@](C)(C(=O)N[C@@H](CCCNC(=N)N)C(=O)N[C@H](C(=O)N[C@@H](Cc2c[nH]c3ccccc23)C(N)=O)C(C)C)NC1=O` (single isomer, unassigned) [FP0502c Isomer 1, Ac-A-R6-I-L-D-A-H-I-MF-R-V-W-NH2] was tested. Which EC50 did it give?
The EC50 was under 100 nM.

Which EC50 does the source give for `CC[C@H](C)[C@@H]1NC(=O)[C@H](Cc2c[nH]cn2)NC(=O)[C@H](C)NC(=O)[C@H](CC(=O)O)NC(=O)[C@H](CC(C)C)NC(=O)[C@H]([C@@H](C)CC)NC(=O)[C@](C)(NC(=O)[C@H](C)NC(C)=O)CCCCC=CCOC(=O)N(C)CC[C@@](C)(C(=O)N[C@@H](CCCNC(=N)N)C(=O)N[C@H](C(=O)N[C@@H](Cc2c[nH]c3ccccc23)C(N)=O)C(C)C)NC1=O` (single isomer, unassigned) [FP0502c Isomer 2, Ac-A-R6-I-L-D-A-H-I-MF-R-V-W-NH2] here?
Its EC50 is 100 to 500 nM.

With `CC[C@H](C)[C@@H]1NC(=O)[C@H](Cc2c[nH]cn2)NC(=O)[C@H](C)NC(=O)[C@H](CC(=O)O)NC(=O)[C@H](CC(C)C)NC(=O)[C@H]([C@@H](C)CC)NC(=O)[C@](C)(NC(=O)[C@H](C)NC(C)=O)CCCN(C)C(=O)OCC=CCCC[C@@](C)(C(=O)N[C@@H](CCCNC(=N)N)C(=O)N[C@H](C(=O)N[C@@H](Cc2c[nH]c3ccccc23)C(N)=O)C(C)C)NC1=O` (single isomer, unassigned) [FP0506c Isomer 1, Ac-A-MI-I-L-D-A-H-I-S5-R-V-W-NH2] as the compound, how does the EC50 read?
The EC50 was 100 to 500 nM.

Which EC50 does the source give for `CC[C@H](C)[C@@H]1NC(=O)[C@H](Cc2c[nH]cn2)NC(=O)[C@H](C)NC(=O)[C@H](CC(=O)O)NC(=O)[C@H](CC(C)C)NC(=O)[C@H]([C@@H](C)CC)NC(=O)[C@](C)(NC(=O)[C@H](C)NC(C)=O)CCCN(C)C(=O)OCC=CCCC[C@@](C)(C(=O)N[C@@H](CCCNC(=N)N)C(=O)N[C@H](C(=O)N[C@@H](Cc2c[nH]c3ccccc23)C(N)=O)C(C)C)NC1=O` (single isomer, unassigned) [FP0506c Isomer 2, Ac-A-MI-I-L-D-A-H-I-S5-R-V-W-NH2] here?
The EC50 was under 100 nM.
